The nature of experiment [1]: viability of PTEN-deleted HCT116 cells – cell-based, HCT116 PTEN knockout, dose response (AID 1047).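 Also: HCT116 colon tumor cells with PTEN knocked out; cells exposed to compound for 60 hours before readout; potency for loss of cell viability measured by luminescence.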 It counts as functional.
Experiment [2] deals with T1, Microphthalmia-associated transcription factor (Homo sapiens, UniProt O75030).
T1 sequence (O75030 whole entry): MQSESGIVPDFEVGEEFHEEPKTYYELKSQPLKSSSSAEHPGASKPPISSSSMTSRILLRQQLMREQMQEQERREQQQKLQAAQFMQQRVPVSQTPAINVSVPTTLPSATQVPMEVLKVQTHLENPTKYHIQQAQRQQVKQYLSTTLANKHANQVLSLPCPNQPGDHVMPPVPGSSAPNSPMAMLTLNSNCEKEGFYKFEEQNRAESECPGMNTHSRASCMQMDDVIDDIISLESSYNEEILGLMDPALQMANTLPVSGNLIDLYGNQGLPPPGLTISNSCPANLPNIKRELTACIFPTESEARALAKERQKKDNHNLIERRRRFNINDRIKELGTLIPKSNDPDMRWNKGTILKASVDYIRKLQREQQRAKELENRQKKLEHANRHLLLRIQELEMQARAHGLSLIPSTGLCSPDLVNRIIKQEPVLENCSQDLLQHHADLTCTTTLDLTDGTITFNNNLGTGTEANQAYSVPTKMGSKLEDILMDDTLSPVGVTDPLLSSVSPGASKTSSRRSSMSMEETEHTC
Nature of the experiment: reducers of TRPM1 reporter luminescence, concentration series – cell-based, SK-MEL-5, cherry-picked, set 3, MITF inhibitor project, dose response (AID 493073).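 Also: SK-MEL-5 melanoma cells with luciferase driven by the MITF target TRPM1 promoter.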 The experiment is classed as functional.

The nature of experiment [3]: Fluorescence-based cell-based high throughput dose response assay for inhibitors of the interaction of nucleotide-binding oligomerization domain containing 2 (NOD2) and the receptor-interacting serine-threonine kinase 2 (RIPK2). The settings on record: Homo sapiens. It counts as functional.
Experiment [4] in a line: viability of HCT116 lacking mutant beta-catenin – cell-based, human colon tumor, dose response (AID 1045).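 Also: HCT116 colon tumor cells with beta catenin knocked out; cells exposed to compound for 60 hours.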 It counts as functional.
A short description of experiment [5]: reduced cellular PGC1a acetyl-lysine signal – cell-based, cherry-picked samples, dose response (AID 720514).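 Also: potency may reflect raised or lowered acetylation signal.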 It counts as functional.
Experiment [6] has as its target E3 ubiquitin-protein ligase Mdm2 (Homo sapiens, UniProt Q00987). The experiment can be described thus: MDM2-luc reporter signal enhancers, multi-concentration potency testing, MDM2 ubiquitin-protein ligase inhibitor program, whole-cell format, luminescence detection, 384-well microplate (AID 1394).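 Also: MDM2 E3 inhibitors raise luminescence so EC50 is for signal enhancement.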 The experiment is classed as functional.
The nature of experiment [7]: Luminescence Cell-Based Dose Retest to Confirm Inhibitors of Cancer Stem Cells. [Related pubchem assays (depositor defined):AID2717, AID2721]. The settings on record: Homo sapiens. It counts as functional.
The next experiment addresses Kallikrein-7 (Homo sapiens, UniProt P49862). The experiment can be described thus: Fluorescence Intensity-based biochemical primary high throughput dose response assay to identify activators of kallikrein-7 (K7) zymogen.
The target in another experiment is T2, Hexokinase HKDC1 (Homo sapiens, UniProt Q2TB90).
T2 sequence (Q2TB90 whole entry): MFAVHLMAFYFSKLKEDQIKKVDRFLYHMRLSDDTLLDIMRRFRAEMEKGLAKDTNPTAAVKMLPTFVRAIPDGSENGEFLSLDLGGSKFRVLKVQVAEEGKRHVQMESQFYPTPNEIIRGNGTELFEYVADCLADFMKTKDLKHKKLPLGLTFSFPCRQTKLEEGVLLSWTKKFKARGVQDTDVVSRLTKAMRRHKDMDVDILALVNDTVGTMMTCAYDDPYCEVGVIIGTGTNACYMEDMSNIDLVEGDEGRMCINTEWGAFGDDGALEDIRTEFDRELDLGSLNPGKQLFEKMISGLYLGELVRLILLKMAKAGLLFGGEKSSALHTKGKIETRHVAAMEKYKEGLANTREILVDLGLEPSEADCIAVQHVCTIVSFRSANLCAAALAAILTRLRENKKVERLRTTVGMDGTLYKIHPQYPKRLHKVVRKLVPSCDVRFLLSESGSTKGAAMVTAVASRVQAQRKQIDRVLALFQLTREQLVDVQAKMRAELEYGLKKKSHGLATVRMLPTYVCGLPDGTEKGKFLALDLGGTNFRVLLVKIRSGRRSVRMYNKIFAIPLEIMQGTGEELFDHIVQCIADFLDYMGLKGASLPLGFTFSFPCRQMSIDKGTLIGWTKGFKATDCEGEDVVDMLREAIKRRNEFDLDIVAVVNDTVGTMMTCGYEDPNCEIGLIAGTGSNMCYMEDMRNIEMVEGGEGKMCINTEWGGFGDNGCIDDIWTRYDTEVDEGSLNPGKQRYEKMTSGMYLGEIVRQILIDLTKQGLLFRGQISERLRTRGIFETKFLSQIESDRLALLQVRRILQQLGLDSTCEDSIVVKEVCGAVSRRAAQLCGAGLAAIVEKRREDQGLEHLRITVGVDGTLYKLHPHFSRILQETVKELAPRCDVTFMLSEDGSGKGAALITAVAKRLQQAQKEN
Nature of the experiment: SAR analysis of small molecule inhibitors of hexokinase domain containing I (HKDC1). [Related pubchem assays (depositor defined):AID493160, AID493190]. The experiment is classed as functional.

The nature of experiment [8]: viability of BHK-21 cells – cell-based, secondary screen, cytotoxicity control for flavivirus guanylyltransferase probe project (AID 624078). It counts as functional.
The target in the next experiment is T3, Hexokinase-1 (Homo sapiens, UniProt P19367).
T3 sequence (P19367 whole entry): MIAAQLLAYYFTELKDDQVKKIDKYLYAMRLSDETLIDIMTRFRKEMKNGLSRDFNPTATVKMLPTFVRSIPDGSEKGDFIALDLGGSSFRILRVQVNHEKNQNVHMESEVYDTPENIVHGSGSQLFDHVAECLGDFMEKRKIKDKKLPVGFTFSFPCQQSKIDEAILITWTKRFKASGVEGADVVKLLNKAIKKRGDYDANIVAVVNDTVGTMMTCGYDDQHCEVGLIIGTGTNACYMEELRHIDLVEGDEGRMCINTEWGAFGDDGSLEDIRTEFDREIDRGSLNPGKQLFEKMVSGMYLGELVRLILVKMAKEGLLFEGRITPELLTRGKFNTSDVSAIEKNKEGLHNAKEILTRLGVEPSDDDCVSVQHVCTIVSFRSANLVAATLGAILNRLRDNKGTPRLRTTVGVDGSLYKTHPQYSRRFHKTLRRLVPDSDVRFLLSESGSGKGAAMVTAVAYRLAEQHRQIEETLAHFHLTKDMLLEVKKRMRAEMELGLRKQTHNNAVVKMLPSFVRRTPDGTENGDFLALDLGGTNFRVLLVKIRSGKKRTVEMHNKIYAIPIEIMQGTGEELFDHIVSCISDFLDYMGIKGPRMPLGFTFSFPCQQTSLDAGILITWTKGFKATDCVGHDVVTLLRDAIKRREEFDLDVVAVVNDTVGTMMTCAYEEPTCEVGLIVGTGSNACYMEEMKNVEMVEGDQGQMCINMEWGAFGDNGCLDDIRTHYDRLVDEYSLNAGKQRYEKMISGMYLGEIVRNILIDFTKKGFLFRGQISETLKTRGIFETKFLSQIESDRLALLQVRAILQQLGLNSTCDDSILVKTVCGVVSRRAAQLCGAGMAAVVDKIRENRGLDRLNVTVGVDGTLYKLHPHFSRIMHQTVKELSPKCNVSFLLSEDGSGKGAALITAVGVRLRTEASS
The experiment can be described thus: SAR analysis of small molecule inhibitors of hexokinase domain containing I (HKDC1) in the hexokinase 1 selectivity assay. [Related pubchem assays (depositor defined):AID493160, AID493190]. The experiment is classed as functional.

The target in experiment [9] is NAD-dependent protein deacylase sirtuin-5, mitochondrial (Homo sapiens, UniProt Q9NXA8). Nature of the experiment: sirtuin-5 deacylation blockers, concentration series – biochemical, fluorescence imaging, cherry-pick, set 5, dose response (AID 720591).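 Also: desuccinylation of succinyl peptide AMC substrate read as fluorescence after trypsin release; potency of inhibitors that lower fluorescence and may act on trypsin instead.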
Chain of NAD-dependent protein deacylase sirtuin-5, mitochondrial (Q9NXA8 whole entry): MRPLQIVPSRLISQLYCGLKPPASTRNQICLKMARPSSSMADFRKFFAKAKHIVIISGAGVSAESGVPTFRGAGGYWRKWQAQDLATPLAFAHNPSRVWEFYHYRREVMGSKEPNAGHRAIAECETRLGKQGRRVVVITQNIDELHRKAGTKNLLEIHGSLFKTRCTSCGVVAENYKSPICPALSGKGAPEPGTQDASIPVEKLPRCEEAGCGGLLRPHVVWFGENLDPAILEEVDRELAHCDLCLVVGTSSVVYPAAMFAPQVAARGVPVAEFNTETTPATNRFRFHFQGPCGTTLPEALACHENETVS
Experiment [10] has as its target ATP-dependent translocase ABCB1 (Homo sapiens, UniProt P08183). The experiment can be described thus: P-gp JC-1 efflux blockers potency – Jurkat-DNR cells, flow cytometry, follow-up, dose response (AID 489002). It counts as functional.

The record followed here is ChEMBL document CHEMBL1201862, “PubChem BioAssay data set” (2004).

Calls of active or inactive are those of the source.

Chain of Kallikrein-7 (P49862 whole entry): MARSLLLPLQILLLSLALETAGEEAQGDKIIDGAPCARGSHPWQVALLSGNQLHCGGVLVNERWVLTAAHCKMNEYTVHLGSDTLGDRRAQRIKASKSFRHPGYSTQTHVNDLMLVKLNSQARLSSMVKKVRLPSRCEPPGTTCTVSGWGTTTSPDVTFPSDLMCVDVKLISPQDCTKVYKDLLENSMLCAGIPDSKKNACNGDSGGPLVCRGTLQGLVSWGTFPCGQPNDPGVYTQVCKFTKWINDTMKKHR
Chain of E3 ubiquitin-protein ligase Mdm2 (Q00987 whole entry): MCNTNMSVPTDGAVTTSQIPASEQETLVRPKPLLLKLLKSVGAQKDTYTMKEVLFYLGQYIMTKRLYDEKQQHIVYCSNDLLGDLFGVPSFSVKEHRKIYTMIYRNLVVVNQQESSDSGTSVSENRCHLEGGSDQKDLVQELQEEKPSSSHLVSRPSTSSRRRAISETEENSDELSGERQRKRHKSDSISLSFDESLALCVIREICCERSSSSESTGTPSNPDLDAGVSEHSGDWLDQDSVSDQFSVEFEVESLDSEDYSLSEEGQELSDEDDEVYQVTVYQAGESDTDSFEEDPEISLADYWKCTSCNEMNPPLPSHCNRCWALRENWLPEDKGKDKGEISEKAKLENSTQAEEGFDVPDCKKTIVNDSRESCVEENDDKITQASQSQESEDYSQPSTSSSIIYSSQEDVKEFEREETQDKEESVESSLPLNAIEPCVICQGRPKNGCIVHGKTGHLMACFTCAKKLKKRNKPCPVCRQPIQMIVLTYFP
Chain of ATP-dependent translocase ABCB1 (P08183 whole entry): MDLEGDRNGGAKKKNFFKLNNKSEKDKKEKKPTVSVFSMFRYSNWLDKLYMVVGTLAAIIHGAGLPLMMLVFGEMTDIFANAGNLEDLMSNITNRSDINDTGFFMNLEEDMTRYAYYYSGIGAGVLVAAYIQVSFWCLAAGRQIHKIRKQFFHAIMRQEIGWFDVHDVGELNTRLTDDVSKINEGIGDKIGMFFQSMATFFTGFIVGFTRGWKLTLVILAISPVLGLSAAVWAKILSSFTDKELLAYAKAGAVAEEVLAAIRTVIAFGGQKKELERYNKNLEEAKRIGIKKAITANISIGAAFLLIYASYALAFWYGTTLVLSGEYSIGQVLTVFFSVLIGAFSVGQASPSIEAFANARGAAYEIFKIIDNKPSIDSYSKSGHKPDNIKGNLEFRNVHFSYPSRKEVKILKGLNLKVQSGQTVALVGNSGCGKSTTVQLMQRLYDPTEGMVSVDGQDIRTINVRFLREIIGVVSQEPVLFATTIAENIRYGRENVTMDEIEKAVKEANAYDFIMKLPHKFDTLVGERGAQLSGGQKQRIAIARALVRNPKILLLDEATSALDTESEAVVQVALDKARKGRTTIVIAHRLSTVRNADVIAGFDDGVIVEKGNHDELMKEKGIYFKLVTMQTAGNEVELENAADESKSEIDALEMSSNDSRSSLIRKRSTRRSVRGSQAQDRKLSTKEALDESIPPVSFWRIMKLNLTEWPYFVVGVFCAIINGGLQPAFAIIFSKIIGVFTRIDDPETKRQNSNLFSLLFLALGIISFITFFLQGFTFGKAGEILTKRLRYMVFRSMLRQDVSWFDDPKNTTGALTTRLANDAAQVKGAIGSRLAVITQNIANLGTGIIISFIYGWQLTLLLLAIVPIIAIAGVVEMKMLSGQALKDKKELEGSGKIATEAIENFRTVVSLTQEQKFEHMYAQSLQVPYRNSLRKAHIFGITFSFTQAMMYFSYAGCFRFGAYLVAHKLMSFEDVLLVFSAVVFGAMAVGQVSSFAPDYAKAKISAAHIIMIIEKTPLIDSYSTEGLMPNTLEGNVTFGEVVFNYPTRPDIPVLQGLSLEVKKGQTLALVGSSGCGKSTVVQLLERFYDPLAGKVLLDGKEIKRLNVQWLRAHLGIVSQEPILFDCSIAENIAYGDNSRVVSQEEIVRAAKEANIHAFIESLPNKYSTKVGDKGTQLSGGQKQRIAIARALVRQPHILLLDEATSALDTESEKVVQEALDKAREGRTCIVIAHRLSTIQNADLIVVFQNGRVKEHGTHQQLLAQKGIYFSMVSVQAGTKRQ

In the case of `O=C(Cn1ncc(Cl)c(Cl)c1=O)NCC1CCCCC1`, the EC50 in [1] was 2.58 µM (active); in [4] it was 1.44 µM (active); in [6] it was 1.89 µM (active). The results for the AC50 in experiment [2], in experiment [5] and in experiment [7] were 7.39 µM (active), 3.97 µM (active) and 2.83 µM (active), respectively. Also, the IC50 in experiment [3] was 3.98 µM (active).
`CCNC(=O)/C(C#N)=C/c1c(N2CCN(c3ccccc3)CC2)nc2ccccn2c1=O`: the EC50 on Kallikrein-7 is 34.8 µM (inactive).
For `Cc1ccc(S(=O)(=O)Nc2cc(SCC(=O)O)c(O)c3ccccc23)cc1`, the half-inhibitory concentration (IC50) was 5.44 µM (active) on Hexokinase HKDC1 and 50.6 µM (inactive) at Hexokinase-1. For the same compound, in [8], the CC50 is 9.31 µM (active).
Regarding `O=C(O)CCNc1nc(-c2ccccc2)nc2ccccc12`, in experiment [9], the AC50 is 5.41 µM (active).
In turn, `CN(CCN(C)c1cc(-c2ccco2)nc2cc(-c3ccccc3)nn12)C(=O)c1ccoc1` showed an EC50 in experiment [10] of 0.0001485 µM.
